Patent US20120058948A1, “Collagen peptides as immune modulators” (priority 2006, published 2012)
Entries after “also recorded” stand apart in the source; their conditions may differ. Square brackets hold non-standard residues; d marks the D form. Ends that are not written are not given here. Hyp = O=C(O)[C@@H]1C[C@@H](O)CN1

Test system: human peripheral blood monocytes (HPBMs) activated with LPS
Assay: LPS-induced IL-1β production (ELISA) from activated HPBMs incubated with LPS and peptide
Assay type: cell-based
Conditions: for effect on LPS-induced IL-1β production from HPBMs: LPS 3.3×10^−7 M plus peptide 10^−7, 10^−8 or 10^−9 M, compared with LPS alone, FIG. 3; for effect on LPS-induced IL-1β production at all concentrations studied: all peptide concentrations studied (10^−7 to 10^−9 M), FIGS. 3B-D
Description: Samples (10 mg each) of peptide p1 (Lot #10055791, Genemed Synthesis Inc., San Francisco, Calif.), p2 (Lot #10059702, Genemed Synthesis Inc.) and p3 (Lot #10059701, Genemed Synthesis Inc.) were obtained with >98% purity. Each peptide was diluted with phosphate buffered saline (PBS, […], pH 7.2, 20012-043, Invitrogen Corp., Carlsbad, Calif.) yielding solutions of 10 mg/mL. The peptide solutions were incubated at 4° C. for 24 hours, then stored at −80° C. until required. Glucagon (G2044, Sigma-Aldrich, St. Louis, Mo.) was stored, defrosted and treated in an identical manner to p1, p2 and p3.
Human peripheral blood monocytes were isolated from whole blood supplied by a healthy […] as follows. A 45 mL sample was drawn using 3.2% sodium citrate vacuum tubes. Whole blood was then diluted with a 2.5 mM PBS solution (0.1M, […], Sterile, S02131, Teknova Inc., Hollister, Calif.) to form a solution having a 1:2 ratio of blood:PBS solution. Red blood cells were subsequently removed by density gradient separation using a 1:1 ratio of Histopaque-1077 (Sigma-Aldrich) and centrifuged for 30 minutes at 400×g at 25° C. The plasma layer was removed by aspiration, and the buffy layer, comprising lymphocytes, monocytes and platelets, was collected into two 50 mL conical tubes. To remove the excess histopaque, platelets and plasma, the cells were centrifuged at 250×g for an additional 10 minutes at 4° C. The supernatant was removed and the cells resuspended in 2.5 mM PBS sodium citrate and centrifuged again. The platelet-enriched supernatant was removed after the second wash, leaving a cell pellet in each of the two tubes.
The remainder of the monocyte isolation was carried out using a MS 130-041-201 column (MACS, Miltenyi Biotec, Bergisch Gladbach, Germany) and Human Monocyte Isolation Kit II (MACS, Miltenyi Biotec) as outlined by the manufacturer. The column was washed with 1 mL of 1% heat inactivated fetal bovine serum (1% HI-FBS, USA origin, sterile-filtered, cell culture tested, hybridoma tested, F2442 Sigma-Aldrich) in a PBS sodium citrate solution. The cell pellets were combined into one tube. The cell solution was centrifuged at 300×g at 4° C. and the supematant removed before adding 30 microliters of 1% HI-FBS, 20 microliters FCR blocking agent and 20 microliters monocyte biotin-antibody cocktail per 10^7 cells to the pellet. The tube was lightly agitated then chilled for 10 minutes at 4° C. Anti-biotin microbeads (40 microliters) and 30 microliters of additional 1% HI-FBS per 10^7 cells were added to each tube. The tube was vortexed for three to five seconds to mix, then set to chill at 4° C. for another 15 minutes.
After the incubation at 4° C., 2 mL of 1% HI-FBS were added, and the sample was centrifuged for 10 minutes at 300×g at 25° C. to remove excess antibodies and beads. The supernatant was removed and the pellet carefully re-suspended in 500 microliters of 1% HI-FBS. This cell solution was added to the column, and no further fluid was added until the flow of solution through the column had stopped. The tube and column were washed three times with 500 microliters of 1% HI-FBS, and the fluid was collected for cell culture. Subsequent fluorescence activated cell sorter (FACS) analysis of tissue culture samples confirmed a monocyte purity of >82%. Monocytes were seeded at 5×10^5 per well and cultured in 10% FBS RPMI 1640 and allowed to incubate at 37° C. in 5% CO2.
Because the peptides under investigation can spontaneously form triple-helical structures in solution, the peptides were heated to 90° C. for two minutes prior to introducing them to HPBM cultures to ensure that unfolded peptides, corresponding to the collagen-degradation products, were used for the experiments. The peptide solutions were then diluted with RPMI 1640 10% FBS at 37° C., yielding a final concentration of 1 microgram/mL. Serial dilutions of the peptide samples were performed to obtain the solutions at the desired concentration. […]

Row | Sequence | effect on LPS-induced IL-1β production from HPBMs | effect on LPS-induced IL-1β production at a relatively high concentration of peptide (LPS 3.3×10^−7 M, relatively high peptide concentration (close to that in synovial fluid of RA patients), FIG. 3A/3D) | effect on LPS-induced IL-1β production at all concentrations studied (LPS 3.3×10^−7 M) | time at which elevated IL-1β levels began, peptide p1 relative to peptide p3 (LPS 3.3×10^−7 M plus peptide, sampling every four hours for 28 hours)
1 | HSQGTIFTSDYSKYLDSRRAQDFVQWLMNT [peptide p0, reference compound] | no significant effect | not statistically significant | – | –
2 | POGPOGPOGAOGLRGGAGPAGPOGPOGPOG (P[Hyp]GP[Hyp]GP[Hyp]GA[Hyp]GLRGGAGPAGP[Hyp]GP[Hyp]GP[Hyp]G; ends and bridges not checked) [peptide p3, models a relatively imino-poor but relatively rigid collagen segment near a gelatinase scissile bond, flanked by POG triplets] | additive effect; also recorded: greatest effect; also recorded: augmented | – | augment | –
3 | POGPOGPOGPOGPOGPOGPOGPOGPOGPOG [peptide p1] | additive effect; also recorded: augmented | – | augment | later time
